This assay has as its system Acinetobacter baumannii ATCC 17961. Kind of assay: Antimicrobial susceptibility testing: 90% growth inhibitory concentration (IC90) determination. It counts as cell-based. The following applies: ATCC17961, Acinetobacter baumannii ATCC 17961, Iso-Sensitest broth, read-out: ATCC 17961 IC90. Put shortly: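 Broth microdilution in Iso-Sensitest medium, twofold series (e.g. 50 to 0.097 μM final), ~5×10^5 CFU/ml inoculum, 35±2 °C. OD600 read every 20 min over 16 h. IC90 derived from growth inhibition during logarithmic phase.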

Structures can show the parent of a compound that is named as a salt.

`C#CCn1cc(-c2cnc(C(=O)Nc3ccc(C(=O)NCCOC[C@@H](C)N)c(Cl)c3)n2C)c(C(F)(F)F)n1` [Example 45, (R)-N-(4-((2-(2-aminopropoxy)ethyl)carbamoyl)-3-chlorophenyl)-1-methyl-5-(1-(prop-2-yn-1-yl)-3-(trifluoromethyl)-1H-pyrazol-4-yl)-1H-imidazole-2-carboxamide 2,2,2-trifluoroacetate]: the IC90 is 262 nM.
`CCc1cc(NC(=O)c2ncc(-c3cn(CC(F)F)nc3C(F)(F)F)n2C)ccc1C(=O)N1CCN(C(=O)C2CNC2)CC1` [Example 153, N-[4-[4-(azetidine-3-carbonyl)piperazine-1-carbonyl]-3-ethylphenyl]-5-[1-(2,2-difluoroethyl)-3-(trifluoromethyl)pyrazol-4-yl]-1-methylimidazole-2-carboxamide;formic acid]: the IC90 is 1000 nM.
Consider `C#CCn1cc(-c2cnc(C(=O)Nc3ccc(C(=O)N4CCN(C(=O)[C@H]5[C@@H]6CNC[C@@H]65)CC4)c(Cl)c3)n2C)c(C(F)(F)F)n1` [Example 92, N-[3-chloro-4-[4-[rac-(1R,5S)-3-azabicyclo[3.1.0]hexane-6-carbonyl]piperazine-1-carbonyl]phenyl]-1-methyl-5-[1-prop-2-ynyl-3-(trifluoromethyl)pyrazol-4-yl]imidazole-2-carboxamide;hydrochloride], for which the IC90 turned out to be 103 nM.
Turning to `Cn1c(-c2cn(C3CC3(F)F)nc2C(F)(F)F)cnc1C(=O)Nc1ccc(C(=O)NC2CC3CNCC32)c(Cl)c1` (stereo not drawn) [Example 319, N-(4-((3-azabicyclo[3.2.0]heptan-6-yl)carbamoyl)-3-chlorophenyl)-5-(1-(2,2-difluorocyclopropyl)-3-(trifluoromethyl)-1H-pyrazol-4-yl)-1-methyl-1H-imidazole-2-carboxamide formate], the IC90 was 398 nM.
Under `Cn1c(-c2cn(CC3CC3)nc2C(F)(F)F)cnc1C(=O)Nc1ccc(C(=O)N2CCN(C(=O)N[C@H]3C[C@@H](N)C3)CC2)c(F)c1` [Example 218, N-((1s,3s)-3-aminocyclobutyl)-4-(4-(5-(1-(cyclopropylmethyl)-3-(trifluoromethyl)-1H-pyrazol-4-yl)-1-methyl-1H-imidazole-2-carboxamido)-2-fluorobenzoyl)piperazine-1-carboxamide; hydrochloride] stands 244 nM; under `Cn1c(-c2cn(C3CC3)nc2C(F)(F)F)cnc1C(=O)Nc1ccc(C(=O)N2CCN(C(=O)CCN)CC2)c(Cl)c1` [Example 252, N-(4-(4-(3-aminopropanoyl)piperazine-1-carbonyl)-3-chlorophenyl)-5-(1-cyclopropyl-3-(trifluoromethyl)-1H-pyrazol-4-yl)-1-methyl-1H-imidazole-2-carboxamide hydrochloride], 308 nM; under `Cn1c(-c2cn(CC(F)F)nc2C(F)(F)F)cnc1C(=O)Nc1ccc(S(=O)(=O)N2CCN(C(=O)[C@H]3C[C@H](O)CN3)CC2)c(Cl)c1` [Example 198, N-(3-chloro-4-((4-((2R,4S)-4-hydroxypyrrolidine-2-carbonyl)piperazin-1-yl)sulfonyl)phenyl)-5-(1-(2,2-difluoroethyl)-3-(trifluoromethyl)-1H-pyrazol-4-yl)-1-methyl-1H-imidazole-2-carboxamide hydrochloride], 207 nM.
As for `C[C@H](N)C(=O)N1CCN(C(=O)c2ccc(NC(=O)c3ncc(-c4cn(Cc5cccnc5)nc4C(F)(F)F)n3C)cc2Cl)CC1` [Example 62, N-[4-[4-[(2S)-2-Aminopropanoyl]piperazine-1-carbonyl]-3-chlorophenyl]-1-methyl-5-[1-(pyridin-3-ylmethyl)-3-(trifluoromethyl)pyrazol-4-yl]imidazole-2-carboxamide trihydrochloride], the IC90 was found to be 834 nM.
In the case of `Cn1c(-c2cn(C(F)F)nc2C(F)(F)F)cnc1C(=O)Nc1ccc(C(=O)N2CCN(C(=O)C3CCNCC3)CC2)c(Cl)c1` [Example 116, N-[3-chloro-4-[4-(piperidine-4-carbonyl)piperazine-1-carbonyl]phenyl]-5-[1-(difluoromethyl)-3-(trifluoromethyl)pyrazol-4-yl]-1-methylimidazole-2-carboxamide;hydrochloride], the IC90 was determined as 487 nM.

One may read the IC90 as the concentration at which the effect reaches the 90% level.

The values are drawn from patent US11390604B2 (Hoffmann-La Roche Inc., priority 2019, dated 2022).
